Assays:
[1] = test system: rats infused with angiotensin II; assay: Vasoconstriction hypertension model (angiotensin II infusion), urinary angiotensinogen excretion and hypertension; assay type: in vivo, rat; conditions: for angiotensinogen excretion (in words): angiotensin II treated rats, compared with Sham rats; for UAGT (Final) / UAGT (Initial): male rats, angiotensin infusion model; for UAGT (Final): final measurement, Sham 2.4 ± 0.5; for UAGT (Initial): initial measurement
Protocol: (§1) Tests were performed to determine whether nonpregnant rats of one of two models of human essential hypertension would create a problem with respect to the other model. More specifically, a volume expansion model included taking out one kidney, thereby accelerating the process of developing hypertension, plus the replacement of drinking water with saline and weekly administration of DOCA, a powerful mineralocorticoid in order to ensure that the salt present in the saline is retained in the rat. This was compared with a model used to induce vasoconstriction by infusing a powerful vasoconstrictor, angiotensin II. It was theorized that the use of an antagonist of MBG, resibufogenin (“RBG”) would ameliorate the hypertension in volume expanded animals and would have no effect on the rats infused with angiotensin II.
(§2) The test indicates the group of rats from a Sham (control) rat with measurements being taken initially and finally. It is noted that, in the NDS rats, which were subjected to nephrectomy and DOCA plus saline, there was no significant increase in the excretion of angiotensinogen. […] The RBG, as expected, also had no effect on the hypertension induced by angiotensin infusion.

[2] = test system: volume expansion model rats (nephrectomy DOCA saline); assay: Volume expansion hypertension model (nephrectomy, DOCA, saline), urinary angiotensinogen excretion; assay type: in vivo, rat
Protocol: as §1, §2

Row | Compound | effect on the hypertension induced by angiotensin infusion ([1]; angiotensin II infused rats) | angiotensinogen excretion (in words) [1] | UAGT (Final) [1] [nmol/day] | UAGT (Initial) [1] [nmol/day] | increase in angiotensinogen (in words) ([2]; NDSR rats: nephrectomy, DOCA plus saline, treated with resibufogenin) | UAGT (Final) ([2]; male rats, nephrectomy DOCA saline model, final measurement, NDS without RBG 2.2 ± 0.3) [nmol/day]
1 | C[C@]12CC[C@H](O)C[C@H]1CC[C@@H]1[C@@H]2CC[C@]2(C)[C@@H](c3ccc(=O)oc3)C[C@H]3O[C@]132 [RBG, resibufogenin] | no effect | no effect | 7.8 ± 0.4 | 2.6 ± 0.2 | no meaningful increase | 2.0 ± 0.2
2 | angiotensin II (DRVYIHPF; Angiotensin-2; UniProt P01019 25-32, looked up) [powerful vasoconstrictor, an octapeptide, infused to induce vasoconstriction] | – | very substantial increase | 7.1 ± 0.5 | 2.6 ± 0.2 | – | –

From US20110044963A1, “Method of Testing a Patient for Hypertension and Related Method of Treatment and Test Kit” (priority 2009, published 2011)
